Earlier results in patent EP4643845A1, “COSMETIC COMPOSITION” (Shiseido Company, Ltd., priority 2022, dated 2024).
*1 amine or outer side, *2 acyl side, *3 side chain or, on linkers, in order; H or OH if unused. Where a SMILES comes first, the peptide text is derived from it. Bridges are numbered along the chain shown (N, C = ends). X1 = CC(C)CCCCCCCCCC(CC(=O)[*:1])O[*:2]

Settings: according to relevant reports

CC(C)CCCCCCCCCC1CC(=O)NC(CCC(=O)O)C(=O)NC(CC(C)C)C(=O)NC(CC(C)C)C(=O)NC(C(C)C)C(=O)NC(CC(=O)O)C(=O)NC(CC(C)C)C(=O)NC(CC(C)C)C(=O)O1 (stereo not shown) [formula (1)] (ELLVDLL; linker N-C via X1; configuration not given here)
critical micelle concentration (CMC): 0.0003 % (mass fraction)
